Experimental data taken from patent US20090104637A1, “Method and Apparatus for Assaying Blood Clotting” (priority 2006, published 2009).
Marks after values point to notes of the source that are not given here.

Tests used:
[1] = cited from earlier work
donor's whole blood = test: On-chip APTT assay with argatroban titration, plug-based microfluidic device, whole blood, 23° C.; format: biochemical, human; conditions: APTT with argatroban / baseline APTT
[2] = test system: normal pooled plasma and donor plasma; test: On-chip APTT assay with argatroban titration, plug-based microfluidic device, plasma, 37° C.; format: biochemical, human
human α-thrombin = molecular target: T1, human α-thrombin (Homo sapiens, UniProt P00734); conditions: 37° C., 50 mM Tris-HCl, pH 8.0, 0.15 M NaCl, 1 mM CaCl2, 1 mg/mL BSA; cited from earlier work
T1 construct: A fluorogenic substrate for human α-thrombin

[3] = test system: activated protein C (aPC); test: Activated protein C (aPC) production from Egg PC lipid coated surfaces with reconstituted thrombomodulin; format: biochemical
Text: It has been proposed that clot propagation is regulated by thrombomodulin (TM), an inhibitor of clotting located at on the walls of vessels near sites of vascular damage. It has been shown that clot propagation is reduced when TM is homogenously mixed into blood plasma. To mimic the localization of TM on vessel walls, TM was incorporated at the channel walls and tested if this TM was sufficient to stop clot propagation. The inventors incorporated TM into the inert phospholipid surface by forming inert lipid vesicles with reconstituted TM (lipid:TM) and by using the procedure described above to coat the channel walls.
Control experiments verified TM activity on the channel walls was on the same order of magnitude as previously measured for a monolayer of endothelial cells. Measured TM activities are shown in Table 2, which illustrates the quantification of activated protein C (aPC) production from Egg PC lipid coated surfaces with reconstituted thrombomodulin (TM). Corresponding velocities of clot propagation are shown.

human blood plasma = test: Velocity of clot propagation in a microfluidic channel in the absence of flow; format: biochemical
Text: To test the prediction that clots propagate as a reactive front with a constant velocity, the inventors used a microfluidic system to regulate and observe clotting in human blood plasma. This system was fabricated in poly(dimethylsiloxane) (PDMS).
FIG. 22 illustrates measurement of the propagation of a blood clot through a microfluidic channel in the absence of flow. Clots propagate with a similar velocity, Fv, in the absence and presence of a membrane-bound inhibitor of clotting, thrombomodulin (TM), on the channel wall. FIG. 22a is a schematic drawing of the procedure for initiating and monitoring clot propagation in a microfluidic device. […] FIG. 22b is a fluorescence microphotograph of a microfluidic device showing that lipids with reconstituted TF (lipid-TF) can be localized to a specific section of a channel in a background of inert lipids. FIG. 22c is a time-lapse fluorescence microphotographs showing position of the clot at 0, 40, and 80 min after plasma was introduced into the channel.
Clot initiation and propagation were spatially separated by patterning the walls of the same channel with different phospholipids (FIG. 22a). […] Clotting was monitored using bright-field microscopy to detect fibrin formation and fluorescence microscopy to detect thrombin-induced cleavage of a peptide-modified coumarin dye. […]

[4] = test system: normal pooled plasma (NPP); test: Initiation of clotting on patches of TF-reconstituted bilayers (timescale of reaction, threshold patch size); format: biochemical, human
Description: Reconstituting tissue factor (TF) to obtain clot-promoting vesicles. TF was reconstituted into mixed vesicles of DLPC/PS/Texas Reds DHPE (79.5/20/0.5 mole percents) at a concentration of 1.25 mg/mL in 1×HEPES-buffered saline/Ca^2+ buffer. For experiments in FIGS. 17, 18, and 19 the TF concentration in the vesicle solution was 0.40 nM (TF:lipid ratio of 2.5×10^−7). Assuming that all the TF was incorporated into the vesicles, the calculated surface concentration would be 0.08 fmol/cm^2. For experiments in Table 1, a final concentration of 0.16 nM of TF (TF:lipid ratio of 1×10^−7) was used. After addition of TF to the vesicle solution, the solution was incubated at 37° C. for 30 min and then stored at 12° C. The vesicles were used within 18 hrs.
Generating patches by backfilling clot-promoting lipids into the photo-removed regions of bilayer. To generate the clot-promoting patches, the patterned bilayers were backfilled with 30 μL of the TF-reconstituted vesicle solution (1.25 mg/mL vesicles in PBS buffer) and allowed to incubate for 4 min at room temperature. Phospholipid bilayers containing active TF have been prepared previously (Contino et al., 1994, Biophys. J. 67: 1113-1116 (1994)). Excess vesicles were removed by vigorous rinsing with a solution of NaCl (150 mM). Patterned bilayers were used immediately in clotting experiments.
Recalcifying the blood plasma samples and adding the thrombi-sensitive dye. All blood plasma samples were recalcified by adding a solution of CaCl2 containing the thrombin-sensitive fluorescent dye, Boc-Asp(OBzl)-Pro-Arg-MCA, (CaCl2, 40 mM; NaCl, 90 mM; and Boc-Asp(OBzl)-Pro-Arg-MCA, 0.4 mM). At the start of each experiment, the plasma and the solution containing CaCl2 were mixed 3:1 by volume. Clotting was detected by the appearance of fibrin using bright field microscopy, and by the appearance of fluorescence signal generated when 4-Methyl-Coumaryl-7-Amine (MCA) was cleaved from Boc-Asp(OBzl)-Pro-Arg-MCA by thrombin.
Inhibiting the factor XII pathway with corn trypsin inhibitor. For experiments measuring clot times for the TF pathway (all experiments using phospholipid bilayers and reconstituted TF), the factor XII (contact) pathway was inhibited with corn trypsin inhibitor (CTI). […]
The threshold patch size of donor platelet rich plasma and normal pooled plasma was measured at 24° C. and 37° C. Clot times were measured on patches presenting clotting stimuli (TF-reconstituted bilayers) in arrays containing patches of different sizes (Table 1). In a single experiment, the clot time on seven different patch sizes was measured. […] Clot time vs. patch size for platelet rich plasma (PRP) from donors was measured.

O=Nc1ccccc1C(=O)O [2-nitrosobenzoic acid]
pKa [1]: < 4

CC1CNc2c(cccc2S(=O)(=O)N[C@@H](CCCNC(=N)N)C(=O)N2CC[C@@H](C)C[C@@H]2C(=O)O)C1 (some centres unmarked) [argatroban]
APTT ratio (donor's whole blood; argatroban 0.5 μg/mL): 2.3
APTT ratio (donor's whole blood; argatroban 1.0 μg/mL): 2.8
APTT ratio ([2]; argatroban 0.5 μg/mL): about 2.1
APTT ratio ([2]; argatroban 1.0 μg/mL): 2.7

t-butyloxycarbonyl-β-benzyl-L-aspartyl-L-prolyl-Larginine-4-methyl-coumaryl-7-amide
Km (human α-thrombin): 11 µM
kcat (human α-thrombin): 160 s⁻¹

thrombomodulin [TM]
aPC production ([3]; Glass, 37 ° C., TM:Egg PC ratio 1:7560): 10 pmol min^−1 m^−2
aPC production ([3]; Glass, 37 ° C., TM:Egg PC ratio 1:75600): 0.3 pmol min^−1 m^−2
aPC production ([3]; PDMS, 25 ° C., TM:Egg PC ratio 1:7560): 5* pmol min^−1 m^−2
aPC production ([3]; PDMS, 25 ° C., TM:Egg PC ratio 1:75600): 10 pmol min^−1 m^−2
Front Velocity (human blood plasma; Glass, 37 ° C., TM:Egg PC ratio 1:7560, 41 without TM): 50 μm min^−1
Front Velocity (Fv) (human blood plasma; PDMS, 25 ° C., TM:Egg PC ratio 1:75600 (lipid:TM=7.6×10^4), 20 without TM): 24 μm min^−1

B1: tissue factor (protein, UniProt P13726 33-295, looked up)
Tissue factor: SGTTNTVAAYNLTWKSTNFKTILEWEPKPVNQVYTVQISTKSGDWKSKCFYTTDTECDLTDEIVKDVKQTYLARVFSYPAGNVESTGSAGEPLYENSPEFTPYLETNLGQPTIQSFEQVGTKVNVTVEDERTLVRRNNTFLSLRDVFGKDLIYTLYYWKSSSSGKKTAKTNTNEFLIDVDKGENYCFSVQAVIPSRTVNRKSTDSPVECMGQEKGEFREIFYIIGAVVFVVIILVIILAISLHKCRKAGVGQSWKENSPLNVS
modifications: in phospholipid bilayers
notes: human recombinant tissue factor reconstituted in phospholipid bilayers, clotting stimulus
threshold patch size, ptr ([4]; [TF]=0.16 nM in vesicles): 160±32 μm
timescale of reaction, tR ([4]; [TF]=0.16 nM in vesicles): 206 s
threshold patch size, ptr ([4]; [TF]=0.40 nM in vesicles): 75±25 μm
timescale of reaction, tR ([4]; [TF]=0.40 nM in vesicles): 30 s
